In patent US11384078B2, “5,6-fused-bicyclic compounds and compositions for the treatment of parasitic diseases” (NOVARTIS AG, priority 2017, dated 2022):
Read-outs that look alike come from different tables or passages of the source.

Legend:
Type in all cases: cell-based
[1] = test system: Leishmania donovani axenic amastigote; assay: In vitro assay for growth inhibition of Leishmania donovani axenic amastigote (Cell TiterGlo luminescence); conditions: Leishmania donovani, L. donovani axenic amastigotes in vitro; read-out: L. donovani amastigotes EC50
Procedure, shortened: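 Compound-treated wells received 9600 axenic amastigotes in RPMI 1640-based medium at pH 5.5 (37 °C, 5% CO2). Growth measured as ATP luminescence (CellTiter-Glo) after 2-day incubation; DMSO and reference compounds served as controls.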

[2] = test system: Trypanosoma cruzi amastigotes cultured in 3T3 fibroblast cells; assay: Assay for growth inhibition of kinetoplastid parasite Trypanosoma cruzi (beta-galactosidase Tulahuen strain, CPRG readout); conditions: Trypanosoma cruzi, Fibroblast, T. cruzi amastigotes in 3T3 fibroblast cells; read-out: Buckner infectious T. cruzi EC50
Procedure, shortened: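 3T3 fibroblasts (1,000 cells/well) plated overnight, treated with compound in DMSO, then infected with 10,000 Lac-Z-expressing Tulahuen trypomastigotes. After 6 days, 0.6 mM CPRG with 0.6% NP-40 added for 2 h at room temperature; absorbance gives relative intracellular amastigote numbers. Benznidazole and nifurtimox serve as positive controls.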

[3] = test system: Trypanosoma brucei brucei (Lister 427) strain; assay: Assay for growth inhibition against Trypanosoma brucei brucei (Cell TiterGlo ATP luminescence); conditions: T. brucei brucei (Lister 427), read-out: T. Brucei (HAT) EC50
Procedure, shortened: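 Growth read-out is cellular ATP by CellTiter-Glo luminescence, measured 30 min after reagent addition, following 2-day incubation at 37 °C in CO2. Parasites (10,000/mL, HMI-9 plus 10% FBS and 10% serum plus) faced 10 threefold dilutions in duplicate; IC50 taken as 50% growth inhibition versus untreated.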

[4] = test system: L. donovani HU3 strain in mouse peritoneal macrophages; assay: Assay for inhibition of parasitemia of Leishmania donovani in mouse macrophages (SYBR Green nuclei count, high-content imaging); conditions: Leishmania donovani, Peritoneal macrophage, L. donovani in mouse peritoneal macrophages; read-out: L. donovani in Mouse Macrophages EC50
Procedure, shortened: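 Parasite numbers were counted from SYBR Green-stained nuclei imaged by high-content microscopy after paraformaldehyde fixation and Triton permeabilization. Before this, compound was applied for 5 days at 37° C to BALB/c peritoneal macrophages (2×10^4/well) that had been exposed 24 h to 4×10^5 L. donovani HU3 amastigotes harvested from infected mouse spleens.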

Which EC50 [1] does the source give for Cc1nc(C)c(C(=O)Nc2ccc(F)c(-n3cc4cc(C(C)(C)C)cnc4n3)c2)o1 [Compound 103, N-(3-{5-tert-butyl-2H-pyrazolo[3,4-b]pyridin-2-yl}-4-fluorophenyl)-2,4-dimethyl-1,3-oxazole-5-carboxamide] here?
The EC50 was 680 nM.

What about the EC50 [2] of the same molecule?
Its EC50 is 150 nM.

What about the EC50 ([3]; Trypanosoma brucei) of the same molecule?
The EC50 was 310 nM.

What about the EC50 [4] of the same molecule?
Its EC50 is 400 nM.

What does the source list for O=C(Nc1ccc(F)c(-n2cc3cc(-c4ccccn4)cnc3n2)c1)c1cnccn1 [Compound 345, N-{4-fluoro-3-[5-(pyridin-2-yl)-2H-pyrazolo[3,4-b]pyridin-2-yl]phenyl}pyrazine-2-carboxamide]?
EC50 [1]: 11 nM; EC50 [2]: 4 nM; EC50 ([3]; Trypanosoma brucei): 5 nM; EC50 [4]: 33 nM

Which results are given for O=C(Nc1ccc(F)c(-n2cc3cc(-c4ncccc4Cl)cnc3n2)c1)N1CC(F)(F)C1 [Compound 310, N-{3-[5-(3-chloropyridin-2-yl)-2H-pyrazolo[3,4-b]pyridin-2-yl]-4-fluorophenyl}-3,3-difluoroazetidine-1-carboxamide]?
EC50 [1]: 2 nM; EC50 [2]: 1 nM; EC50 ([3]; Trypanosoma brucei): 5 nM; EC50 [4]: 2 nM

How did the EC50 [1] turn out when O=C(Nc1ccc(F)c(-n2cc3cc(-c4ncccc4Cl)cnc3n2)c1)N1CC[C@@H](F)C1 [Compound 316, (3R)-N-{3-[5-(3-chloropyridin-2-yl)-2H-pyrazolo[3,4-b]pyridin-2-yl]-4-fluorophenyl}-3-fluoropyrrolidine-1-carboxamide] was run?
The EC50 was 2 nM.

And the EC50 [2]?
Its EC50 is 1 nM.

And the EC50 ([3]; Trypanosoma brucei)?
Its EC50 is 5 nM.

What about the EC50 [4] of the same molecule?
Its EC50 is 2 nM.

Which results are given for Cc1nc(COC(C)(C)C)oc1C(=O)Nc1ccc(F)c(-n2cc3cc(C(C)C)cnc3n2)c1 [Compound 79, 2-[(tert-butoxy)methyl]-N-{4-fluoro-3-[5-(propan-2-yl)-2H-pyrazolo[3,4-b]pyridin-2-yl]phenyl}-4-methyl-1,3-oxazole-5-carboxamide]?
EC50 [1]: 3000 nM; EC50 [2]: 140 nM; EC50 ([3]; Trypanosoma brucei): 350 nM; EC50 [4]: 2400 nM

For O=C(Nc1ccc(F)c(-n2cc3cc(N4CC5(CCOCC5)C4)cnc3n2)c1)N1CC(F)C1 [Compound 203, 3-fluoro-N-[4-fluoro-3-(5-{7-oxa-2-azaspiro[3.5]nonan-2-yl}-2H-pyrazolo[3,4-b]pyridin-2-yl)phenyl]azetidine-1-carboxamide], which EC50 [1] is on record?
The EC50 was 490 nM.

What about the EC50 [2] of the same molecule?
The EC50 was 20 nM.

What about the EC50 ([3]; Trypanosoma brucei) of the same molecule?
Its EC50 is 5 nM.

What about the EC50 [4] of the same molecule?
Its EC50 is 9 nM.

Which results are given for O=C(Nc1ccc(F)c(-n2cc3cc(-c4ncccc4Cl)cnc3n2)c1)N1CCC1 [Compound 315, N-{3-[5-(3-chloropyridin-2-yl)-2H-pyrazolo[3,4-b]pyridin-2-yl]-4-fluorophenyl}azetidine-1-carboxamide]?
EC50 [1]: 2 nM; EC50 [2]: 1 nM; EC50 ([3]; Trypanosoma brucei): 5 nM; EC50 [4]: 2 nM

What does the source list for O=C(Nc1ccc(F)c(-n2cc3cc(N4CC5(CC5)C4)cnc3n2)c1)N1CCC1 [Compound 257, N-(3-(5-(5-azaspiro[2.3]hexan-5-yl)-2H-pyrazolo[3,4-b]pyridin-2-yl)-4-fluorophenyl)azetidine-1-carboxamide]?
EC50 [1]: 14 nM; EC50 [2]: 2 nM; EC50 ([3]; Trypanosoma brucei): 4 nM; EC50 [4]: 7 nM

CC(C)c1cnc2nn(-c3cc(NC(=O)C4CCCO4)ccc3F)cc2c1 (stereo not drawn) [Compound 88, N-{4-fluoro-3-[5-(propan-2-yl)-2H-pyrazolo[3,4-b]pyridin-2-yl]phenyl}oxolane-2-carboxamide] was tested. Which EC50 [1] did it give?
Its EC50 is 5300 nM.

What about the EC50 [2] of the same molecule?
Its EC50 is 1800 nM.

What about the EC50 ([3]; Trypanosoma brucei) of the same molecule?
Its EC50 is 1500 nM.

What about the EC50 [4] of the same molecule?
Its EC50 is 3200 nM.

How did the EC50 [1] turn out when CN(C)c1cnc2nn(-c3cc(NC(=O)N4CC(F)(F)C4)ccc3F)cc2c1 [Compound 9, N-(3-(5-(dimethylamino)-2H-pyrazolo[3,4-b]pyridin-2-yl)-4-fluorophenyl)-3,3-difluoroazetidine-1-carboxamide] was run?
The EC50 was 8.7 nM.

And the EC50 [2]?
Its EC50 is 9.8 nM.

What about the EC50 ([3]; Trypanosoma brucei) of the same molecule?
The EC50 was 35 nM.

And the EC50 [4]?
Its EC50 is 11 nM.

Which results are given for Cc1nc(C)c(C(=O)Nc2ccc(F)c(-n3cc4cc(Br)cnc4n3)c2)o1 [Compound 128, N-(3-(5-bromo-2H-pyrazolo[3,4-b]pyridin-2-yl)-4-fluorophenyl)-2,4-dimethyloxazole-5-carboxamide]?
EC50 [1]: 380 nM; EC50 [2]: 140 nM; EC50 ([3]; Trypanosoma brucei): 180 nM; EC50 [4]: 190 nM

O=C(Nc1ccc(F)c(-n2cc3cc(-c4ccccn4)cnc3n2)c1)[C@@H]1C[C@@H]1F (racemic) [Compound 349, (1S,2S)-2-fluoro-N-{4-fluoro-3-[5-(pyridin-2-yl)-2H-pyrazolo[3,4-b]pyridin-2-yl]phenyl}cyclopropane-1-carboxamide] was tested. Which EC50 [1] did it give?
The EC50 was 96 nM.

What about the EC50 [2] of the same molecule?
The EC50 was 85 nM.

And the EC50 ([3]; Trypanosoma brucei)?
Its EC50 is 43 nM.

And the EC50 [4]?
The EC50 was 102 nM.

What does the source list for Cc1nccnc1-c1cnc2nn(-c3cc(NC(=O)N4CC(F)C4)ccc3F)cc2c1 [Compound 312, 3-fluoro-N-{4-fluoro-3-[5-(3-methylpyrazin-2-yl)-2H-pyrazolo[3,4-b]pyridin-2-yl]phenyl}azetidine-1-carboxamide]?
EC50 [1]: 3 nM; EC50 [2]: 4 nM; EC50 ([3]; Trypanosoma brucei): 33 nM; EC50 [4]: 2 nM

Which results are given for CC(C)(C)Cc1cnc2nn(-c3cc(NC(=O)c4ccco4)ccc3F)cc2c1 [Compound 59, N-{3-[5-(2,2-dimethylpropyl)-2H-pyrazolo[3,4-b]pyridin-2-yl]-4-fluorophenyl}furan-2-carboxamide]?
EC50 [1]: 68 nM; EC50 [2]: 4.7 nM; EC50 ([3]; Trypanosoma brucei): < 23 nM; EC50 [4]: 21 nM

With Cc1cccnc1-c1cnc2nn(-c3cc(NC(=O)N4CCC4)ccc3F)cc2c1 [Compound 3, N-(4-fluoro-3-(5-(3-methylpyridin-2-yl)-2H-pyrazolo[3,4-b]pyridin-2-yl)phenyl)azetidine-1-carboxamide] as the molecule, how does the EC50 [1] read?
Its EC50 is 1.8 nM.

What about the EC50 [2] of the same molecule?
The EC50 was 1.6 nM.

And the EC50 ([3]; Trypanosoma brucei)?
The EC50 was under 23 nM.

And the EC50 [4]?
The EC50 was 2 nM.

With CN(C)c1cnc2nn(-c3cc(NC(=O)N4CC5(CC5)C4)ccc3F)cc2c1 [Compound 260, N-{3-[5-(dimethylamino)-2H-pyrazolo[3,4-b]pyridin-2-yl]-4-fluorophenyl}-5-azaspiro[2.3]hexane-5-carboxamide] as the molecule, how does the EC50 [1] read?
The EC50 was 221 nM.

What about the EC50 [2] of the same molecule?
The EC50 was 49 nM.

And the EC50 ([3]; Trypanosoma brucei)?
The EC50 was 43 nM.

And the EC50 [4]?
The EC50 was 224 nM.

With O=C(Nc1ccc(F)c(-n2cc3cc(N4CC5(CC5)C4)cnc3n2)c1)N1CC[C@@H](F)C1 [Compound 259, (3R)-N-[3-(5-{5-azaspiro[2.3]hexan-5-yl}-2H-pyrazolo[3,4-b]pyridin-2-yl)-4-fluorophenyl}-3-fluoropyrrolidine-1-carboxamide] as the molecule, how does the EC50 [1] read?
Its EC50 is 12 nM.

And the EC50 [2]?
The EC50 was 3 nM.

What about the EC50 ([3]; Trypanosoma brucei) of the same molecule?
The EC50 was 4 nM.

What about the EC50 [4] of the same molecule?
Its EC50 is 16 nM.

Cc1ncoc1C(=O)Nc1ccc(F)c(-n2cc3cc(C(C)C)cnc3n2)c1 [Compound 73, N-{4-fluoro-3-[5-(propan-2-yl)-2H-pyrazolo[3,4-b]pyridin-2-yl]phenyl}-4-methyl-1,3-oxazole-5-carboxamide] was tested. Which EC50 [1] did it give?
The EC50 was 100 nM.

What about the EC50 [2] of the same molecule?
Its EC50 is 57 nM.

And the EC50 ([3]; Trypanosoma brucei)?
The EC50 was 37 nM.

What about the EC50 [4] of the same molecule?
The EC50 was 220 nM.

O=C(Nc1ccc(F)c(-n2cc3cc(N4CC(F)(F)C4)cnc3n2)c1)N1CCC1 [Compound 290, N-{3-[5-(3,3-difluoroazetidin-1-yl)-2H-pyrazolo[3,4-b]pyridin-2-yl]-4-fluorophenyl)azetidine-1-carboxamide] was tested. Which EC50 [1] did it give?
The EC50 was 7 nM.

What about the EC50 [2] of the same molecule?
The EC50 was 4 nM.

And the EC50 [3]?
Its EC50 is 4 nM.

What about the EC50 [4] of the same molecule?
Its EC50 is 4 nM.

With O=C(Nc1ccc(F)c(-n2cc3cc(N4CCC5(CC5)C4)cnc3n2)c1)N1CCC2(CC2)C1 [Compound 242, N-[3-(5-{5-azaspiro[2.4]heptan-5-yl}-2H-pyrazolo[3,4-b]pyridin-2-yl)-4-fluorophenyl}-5-azaspiro[2.4]heptane-5-carboxamide] as the molecule, how does the EC50 [1] read?
The EC50 was 1970 nM.

And the EC50 [2]?
The EC50 was 7 nM.

And the EC50 ([3]; Trypanosoma brucei)?
Its EC50 is 13 nM.

And the EC50 [4]?
Its EC50 is 106 nM.

How did the EC50 [1] turn out when O=C(Nc1ccc(F)c(-n2cc3cc(N4CCC45COC5)cnc3n2)c1)N1CC(F)C1 [Compound 231, 3-fluoro-N-{4-fluoro-3-(5-{6-oxa-1-azaspiro[3.3]heptan-1-yl}-2H-pyrazolo[3,4-b]pyridin-2-yl)phenyl}azetidine-1-carboxamide] was run?
Its EC50 is 34 nM.

What about the EC50 [2] of the same molecule?
The EC50 was 126 nM.

What about the EC50 [3] of the same molecule?
The EC50 was 6 nM.

What about the EC50 [4] of the same molecule?
Its EC50 is 113 nM.

Which EC50 [1] does the source give for O=C(Nc1ccc(F)c(-n2cc3cc(N4CC5(CC5)C4)cnc3n2)c1)[C@H]1C[C@@H]1F (racemic) [Compound 272, (1R,2S)-N-[3-(5-{5-azaspiro[2.3]hexan-5-yl}-2H-pyrazolo[3,4-b]pyridin-2-yl]-4-fluorophenyl}-2-fluorocyclopropane-1-carboxamide] here?
The EC50 was 131 nM.

And the EC50 [2]?
The EC50 was 114 nM.

What about the EC50 ([3]; Trypanosoma brucei) of the same molecule?
Its EC50 is 351 nM.

And the EC50 [4]?
Its EC50 is 85 nM.

With CC(C)(C)Cc1cnc2nn(-c3cc(NC(=O)N4CC(F)C4)ccc3F)cc2c1 [Compound 21, N-{3-[5-(2,2-dimethylpropyl)-2H-pyrazolo[3,4-b]pyridin-2-yl]-4-fluorophenyl}-3-fluoroazetidine-1-carboxamide] as the molecule, how does the EC50 [1] read?
The EC50 was 7.7 nM.

What about the EC50 [2] of the same molecule?
Its EC50 is 1.7 nM.

What about the EC50 ([3]; Trypanosoma brucei) of the same molecule?
The EC50 was under 23 nM.

And the EC50 [4]?
Its EC50 is 6.5 nM.

Cn1cc(-c2cnc3nn(-c4cc(NC(=O)N5CC(F)C5)ccc4F)cc3c2)cn1 [Compound 304, 3-fluoro-N-{4-fluoro-3-[5-(1-methyl-1H-pyrazol-4-yl)-2H-pyrazolo[3,4-b]pyridin-2-yl]phenyl}azetidine-1-carboxamide] was tested. Which EC50 [1] did it give?
The EC50 was 4 nM.

What about the EC50 [2] of the same molecule?
Its EC50 is 30 nM.

What about the EC50 ([3]; Trypanosoma brucei) of the same molecule?
The EC50 was 5 nM.

And the EC50 [4]?
The EC50 was 3 nM.
